Assay results: US20230384330A1, “COMPOSITIONS AND METHODS RELATING TO THE IDENTIFICATION AND TREATMENT OF IMMUNOTHROMBOTIC CONDITIONS” (THE REGENTS OF THE UNIVERSITY OF MICHIGAN, priority 2020, published 2023)
Entries after “also recorded” stand apart in the source; their conditions may differ.

Columns and labels:
[1] = tested on: CD142/TF; test: CD142/TF expression in PBMC stimulated with TLR ligands, mass cytometry; format: cell-based, human; details: PBMC from HC stimulated 4 h, vs no treated (NT) controls
Description: FIGS. 12A-12C: Inflammatory mediators increase CD142/TF expression and activity in monocytes. A) PBMC were isolated from HC and stimulated with Pam2CSK4(TLR2), Poly(I:C) (TLR3), and LPS (TLR4) for 4 h. […] Circles represent CD14+ monocytes. B) PBMC were isolated and stimulated with LPS and Ang II (vascular activator) and TF activity was quantified based on the ability of TF/FVIIa to activate FX to factor Xa. The amidolytic activity of the TF/FVIIa complex is quantitated by the amount of FXa produced using a FXa substrate which releases a chromophore upon cleavage. *p<0.05. C) To probe for the mechanisms that regulate TF expression in circulating monocytes, PBMC were isolated and stimulated with LPS with or without Annexin V (AnnV) to block apoptotic sensing (through masking of PS on target cells/particles) in monocytes. […] Results representative of 3 independent experiments.
To determine if inflammatory mediators can drive monocyte TF expression, CD14+ monocytes were isolated from PBMCs and stimulated with TLR ligands (Pam2Csk4; Poly(I:C); LPS) for 4 hours.
Measurement of inflammatory mediated TF expression. To determine if inflammatory mediators can drive monocyte TF expression, CD14+ monocytes were isolated from peripheral blood mononuclear cells (PBMC) and were stimulated with TLR ligands (Pam2Csk4; Poly(I:C); LPS) for 4 hours. To assess if monocyte-bound TF is active, a FXa activity assay was used. CD14+ monocytes were stimulated with LPS and FXa activity was assessed as a marker of TF activity.

[2] = tested on: STAT1; test: Signal pathway activation in monocytes/PBMC treated with LPS and heparin, microfluidic proteomics (phospho-STAT1); format: cell-based, human; details: LPS 1 ug/ml 4 h cotreated with heparin 10 u/ml, vs LPS alone
[3] = tested on: p-p65 and p-PKC; test: Signal pathway activation in CD14+ monocytes treated with LPS and heparin, microfluidic proteomics (p-p65, p-PKC); format: cell-based, human; details: LPS 1 ug/ml 4 h and heparin 10 u/ml, between groups
Description: (§1) FIGS. 3A-3B: Heparin augments type I IFN/STAT1 signaling and tends to blunt CD142/TF transcriptional induction in response to LPS. A) CD14+ monocytes were stimulated with LPS (1 ug/ml; 4 h) and heparin (Hep) (10 u/ml) and signal pathway activation was probed using microfluidic proteomics. […] However, phospo-STAT1 activation was augmented in monocytes cotreated with LPS and Hep. Normalized activation determined by normalizing phospho proteins to total protein. B) qRT-PCR of CD14+ monocytes treated with LPS with and without Hep. […] Fold-change determined normalizing to GAPDH and to NT groups. *p<0.05; #p=0.07
PBMC treatment and stimulation. Approximately 10 million cells were equally divided into 4 fractions and treated with the following (for Hep experiments): 1) Hep (1.5 U/mL), 2) LPS (1 μg/mL), 3) LPS+Hep (1 μg/mL LPS with 1.5 U/mL Hep), and 4) RPMI medium alone. All treatments were performed for 2 hours in suspension at 37° C. and 5% CO2 with gentle vortexing every 30 minutes to prevent cell sedimentation. After 2-hour incubation, cells were centrifuged, and supernatants were collected. Cells were then resuspended in 1 mL PBS (without Ca^2+ and Mg ^2+) for downstream analysis

[4] = tested on: PBMC; test: Signaling pathway activation and inflammatory transcriptional programs in PBMC, heparin alone; format: cell-based, human
[5] = tested on: CD142/TF; test: qRT-PCR of CD142/TF in CD14+ monocytes treated with LPS with and without heparin; format: cell-based, human
Description: as §1
PCR gene expression assay. RNA was then eluted in 32 uL RNase free water and concentration and purity were measured using Nanodrop. Applied Biosystems High-Capacity cDNA Reverse Transcription kit was used to convert RNA into cDNA for qPCR per the manufacturer's instructions. PCR was performed in 96 well plate using Taqman master mix and Taqman primers. 1× GAPDH-VIC and 1× target gene-FAM was used for each PCR reaction as housekeeping control gene and target gene respectively (total of 20 μL reaction volume). “No treatment control” is used to normalize each target gene expression for analysis of experimental groups.

[6] = tested on: PBMCs
[7] = tested on: CD142/Tissue factor; test: CD142/Tissue factor expression on PBMC populations by flow cytometry; format: cell-based, human; details: for CD142 expression (percent positive CD142+) in monocytes and granulocytes: PBMCs, 1 ug/mL LPS or 155 ug/mL LpA, 4 hours; for CD142/Tissue factor induction by LPS: PBMC pre-treated 1 hr with Annexin V 10 ug/ml, then LPS 1 ug/ml 4 hours
Description: (§2) FIGS. 2A-2B: Monocytes activated by inflammatory stimuli increase TF/CD142 expression and activity. PBMC were isolated from healthy controls and stimulated with LPS (1 ug/ml for 4 h) and compared with no treatment (NT) controls. […] B) Tissue factor activity was assessed in both cells and supernatants in PBMC treated with LPS (1 ug/ml for 4 h). The tissue factor activity was quantified based on the ability of TF/FVIIa to activate FX to factor Xa. The amidolytic activity of the TF/FVIIa complex is quantitated by the amount of FXa produced using a highly specific FXa substrate which releases a chromophore upon cleavage. *p<0.05.
(§3) FIGS. 5A-5C: Annexin V peptide pretreatment blocks LPS induction of CD142/Tissue factor and CD142/Tissue factor activity. PBMC were pre-treated for 1 hr with Annexin V (10 ug/ml) or PBS and then stimulated with LPS (1 ug/ml) for 4 hours. PBMC were analyzed with either flow cytometry or tissue factor activity assay. A) Representative SSC vs. FSC gating strategy for Monocytes and Lymphocytes; B) CD142/Tissue factor was assessed by flow cytometry. Annexin V pre-treatment blocks CD142/Tissue factor induction by LPS. C). CD142/Tissue factor activity using substrate cleavage and FXa generation. Results are representative of three independent experiments. *p<0.05
PBMCs were isolated and treated with 1 ug/mL LPS, 155 ug/mL LpA, or a combination of the above for 4 hours with gentle vortexing every 30 minutes. Cells were blocked with Tru-Stain FcX for 10 minutes and then treated with human anti CD142-PE for 30 minutes on ice. Cells were then analyzed via flow cytometry. (A) Representative FSC vs. SSC gating strategy. (B) Percent positive CD142+ for lymphocytes. (C) Percent positive CD142+ for monocytes. (D) Percent positive CD142+ for granulocytes. N=3. *p-value<0.0001 (ANOVA).

[8] = tested on: TF/FVIIa complex; test: Tissue factor activity assay (TF/FVIIa activation of FX to FXa, chromogenic substrate) in PBMC; format: cell-based, human
Description: as §2
as §3, with “Annexin V pre-treatment blocks CD142/Tissue factor induction by LPS. C). CD142/Tissue factor activity using substrate cleavage and FXa generation. Results are representative of three independent experiments. *p<0.05” left out
Active TF catalyzes the conversion of factor X to Xa; TF activity in plasma, microvesicles, and monocytes were measured by quantifying factor Xa activity using the fluorogenic factor Xa substrate (Abcam). TF activity was quantified based on the ability of TF/FVIIa to activate FX to FXa. […]

[9] = tested on: NFκB; test: NFκB activation in THP1-Dual monocytes (SEAP, QUANTI-Blue assay); format: cell-based, human; details: 24 h, 77.5 ug/mL Lp(a)
Description: FIG. 10: Lp(a) increases NFκB induction on THP1-Dual monocytes; addition of TLR2 decreases activation effect of Lp(a). THP1-Dual monocytes stimulated for 24 h with 77.5 ug/mL Lp(a), 77.5 μg/mL Lp(a)+10 μg/mL TR2, 77.5 μg/mL Lp(a)+10 μg/mL TR4, and 100 ng/mL Pam2CSK4. After 24 h stimulation, supernatant was collected and NFκB activation was assessed by measuring the levels of SEAP using QUANTI-Blue assay. Levels of SEAP were determined by reading the optical density at 640 nm. *p-value<0.0001 (ANOVA).
THP1-Dual monocytes stimulated for 24 h with 77.5 ug/mL Lp(a), 77.5 ug/mL Lp(a)+10 ug/ml TLR2, 77.5 ug/ml Lp(a)+10 ug/ml TLR4, and 100 ng/mL Pam2CSK4. After 24 h stimulation, supernatant was collected and NFkB activation was assessed by measuring the levels of SEAP using QUANTI-Blue assay. Levels of SEAP were determined by reading the optical density at 640 nm. *p-value<0.0001 (ANOVA). […] THP1-Dual monocytes stimulated for 24 h with 77.5 ug/mL Lp(a), 77.5 ug/mL Lp(a)+10 ug/ml TLR2, 77.5 ug/ml LpA+10 ug/ml TLR4, and 100 ng/mL Pam2CSK4. After 24 h stimulation, supernatant was collected and IRF activation was assessed by measuring the levels of Lucia luciferase using QUANTI-Luc assay. Levels of Lucia luciferase were determined by measuring the relative light units (RLUs) in a luminometer at a 100 ms reading time.

Pam2CSK4
CD142/TF expression (viSNE plots, CD14+ monocytes) [1]: increased CD142/TF expression

Poly(I:C)
CD142/TF expression (viSNE plots, CD14+ monocytes) [1]: increased CD142/TF expression

heparin
phospho-STAT1 activation (phospho protein normalized to total protein) [2]: augmented; also recorded: increases in STAT1 activation
p-p65 and p-PKC activation [3]: no differences
signaling pathway activation or inflammatory transcriptional programs [4]: no effects
transcriptional induction of CD142/TF by LPS ([5]; cotreatment with LPS and heparin, fold-change normalized to GAPDH and NT, #p=0.07): trend to blunted transcriptional expression; also recorded: seemed to blunt
cytotoxicity [6]: not cytotoxic

lipopolysaccharide [LPS]
CD142/TF transcriptional expression ([5]; LPS alone, CD14+ monocytes, vs NT): induced
CD142/TF expression in monocytes ([7]; LPS 1 ug/ml, 2-4 h, vs no treatment (NT)): induce TF expression; also recorded: rapid and robust induction; also recorded: rapidly drives TF expression
CD142 expression (percent positive CD142+) in monocytes and granulocytes [7]: upregulated
TF induction in purified CD14+ Mϕ compared with bulk PBMC stimulation ([7]; response to LPS): much less TF induction
TF activity (FXa production) ([8]; PBMC/monocytes stimulated with inflammatory stimulus, vs untreated): increases TF activity
CD142/TF expression (viSNE plots, CD14+ monocytes) [1]: increased CD142/TF expression

lipoprotein (a) [Lp(a)]
CD142 expression (percent positive CD142+) in monocytes and granulocytes [7]: upregulated
NFκB induction (SEAP, optical density at 640 nm) [9]: increases

B1: Annexin V (protein, UniProt P08758 2-320, looked up)
Annexin A5: AQVLRGTVTDFPGFDERADAETLRKAMKGLGTDEESILTLLTSRSNAQRQEISAAFKTLFGRDLLDDLKSELTGKFEKLIVALMKPSRLYDAYELKHALKGAGTNEKVLTEIIASRTPEELRAIKQVYEEEYGSSLEDDVVGDTSGYYQRMLVVLLQANRDPDAGIDEAQVEQDAQALFQAGELKWGTDEEKFITIFGTRSVSHLRKVFDKYMTISGFQIEETIDRETSGNLEQLLLAVVKSIRSIPAYLAETLYYAMKGAGTDDHTLIRVMVSRSEIDLFNIRKEFRKNFATSLYSMIKGDTSGDYKKALLLLCGEDD
CD142/Tissue factor induction by LPS [7]: blocks
CD142/Tissue factor induction by LPS ([7]; listed as AnnV): greatly reduced
CD142/Tissue factor induction by LPS ([7]; listed as annexin V): dramatic blunting
CD142/Tissue factor activity (FXa generation) induced by LPS ([8]; PBMC pre-treated 1 hr with Annexin V 10 ug/ml, then LPS 1 ug/ml 4 hours): blocks
